Measurements reported in ChEMBL document CHEMBL1255318, “Effect of low-dose ritonavir on the pharmacokinetics of the CXCR4 antagonist AMD070 in healthy volunteers” (Antimicrob Agents Chemother, 2008).

Key:
Assay type in all cases: ADME, organism-based
[1] = AUC (0 to infinity) in […] at […], po administered as single dose measured on day 1 by HPLC; set-up: route oral, time infinity; conditions: human, plasma
[2] = Apparent volume of distribution during terminal phase in […] at […], po administered as single dose measured on day 17 by HPLC in presence of 29 doses of […]; conditions: human, in vivo, read-out: Vz/F
[3] = AUC (0 to infinity) in […] at […], po administered as single dose measured on day 17 by HPLC in presence of 29 doses of […]; set-up: route oral, time infinity; conditions: human, plasma
[4] = Oral bio availability in rat in presence of ritonavir; conditions: in vivo
[5] = Tmax in […] at […], po administered as single dose measured on day 17 by HPLC in presence of 29 doses of […]; conditions: human, in vivo
[6] = Tmax in […] at […], po administered as single dose measured on day 3 by HPLC in presence of […]; conditions: human, in vivo
[7] = Cmax in […] at […], po administered as single dose measured on day 1 by HPLC; set-up: route oral; conditions: human, in vivo
[8] = AUC in rat in presence of ritonavir; conditions: plasma
[9] = AUC (0 to infinity) in […] at […], po administered as single dose measured on day 3 by HPLC in presence of […]; set-up: time infinity, route oral; conditions: human, plasma
[10] = Cmax in rat in presence of ritonavir; conditions: in vivo
[11] = Cmax in […] at […], po administered as single dose measured on day 17 by HPLC in presence of 29 doses of […]; set-up: route oral; conditions: human, in vivo
[12] = Tmax in […] at […], po administered as single dose measured on day 1 by HPLC; set-up: route oral; conditions: human, in vivo
[13] = Apparent volume of distribution during terminal phase in […] at […], po administered as single dose measured on day 3 by HPLC in presence of […]; conditions: human, in vivo, read-out: Vz/F
[14] = Apparent volume of distribution during terminal phase in […] at […], po administered as single dose measured on day 1 by HPLC; set-up: route oral; conditions: human, in vivo, read-out: Vz/F
[15] = Cmax in […] at […], po administered as single dose measured on day 3 by HPLC in presence of […]; set-up: route oral; conditions: human, in vivo

- AUC(0-inf) [1]: 0.934 µg·h/mL
- Vd/F [2]: 3930 L
- AUC(0-inf) [3]: 1.21 µg·h/mL
- bioavailability [4]: 66%
- Tmax [5]: 1 h
- Tmax [6]: 2 h
- Cmax [7]: 0.256 µg/mL
- AUC [8]: 0.058 µg·h/mL
- AUC(0-inf) [9]: 1.64 µg·h/mL
- Cmax [10]: 0.158 µg/mL
- Cmax [11]: 0.333 µg/mL
- Tmax [12]: 3 h
- Vd/F [13]: 3450 L
- Vd/F [14]: 4200 L
- Cmax [15]: 0.362 µg/mL
SMILES: NCCCCN(Cc1nc2ccccc2[nH]1)[C@H]1CCCc2cccnc21 [MAVORIXAFOR]
